The results in this text go back to US10744214B2, “Method of diagnosing and/or monitoring therapy of atherosclerosis” (STC.UNM, priority 2015, dated 2020).

Assay [1] deals with T1, LFA-1 (Mus musculus, UniProt P24063).
T1 construct: presence of inflammatory LFA-1 in immune and cardiovascular tissues; from tissue; host or cells: living or euthanized male ApoE-/- C57BL/6 mice: heart, aortic arch, descending aorta, carotids, thymus
As to the kind of experiment: 3 hr [111In] In-DANBIRT SPECT/CT imaging of ApoE-/- mice. The assay is classed as in vivo. Particulars: HFD fed mice, 3 hr post injection, baseline, 4th and 8th week, normalized to muscle. On the procedure: (§1) Methods: 6 week ApoE […] mice were fed either normal or high fat chow (n=8 per group) for 8 weeks to induce vascular atherosclerotic lesions. SPECT/CT imaging was performed 3-hrs post injection of ˜700 uCi of ^111In-DANBIRT at baseline, 4 weeks and 8 weeks. Whole body Autoradiography was performed 24-hrs post injection after 8-week time point. Image processing and analysis was performed by region of interest (ROI) determination in relationship to voxel and volume, uptake quantification was normalized to muscle uptake. Blood partition assays were conducted to ascertain specific binding components. […]
Animals were imaged at […] following 700 μCi via tail vein injection of [^111In] […] Regions of Interests (ROI) were determined and drawn using the best quality image phantom from reconstructed CT (Table 3) to determine muscle, adipose, heart, aortic arch and descending aorta organs using VivoQuant 2.00 (inviCRO, Boston, Mass.). […] Concentration and sum per volume normalized to muscle was determined to identify accurate measurements and eliminate ROI signal interference from adjacent tissues. […]

Assay [2] deals with T1, LFA-1. As to the kind of experiment: 24 hr [111In] In-DANBIRT 3D autoradiography of ApoE-/- mice. The format is in vivo. As for the experimental part: as §1
Mice were euthanized by CO2 method after 8 weeks of dietary assessment. […] Autoradiography and white light files were compiled and analyzed using VivoQuant 2.00 (inviCRO, Boston, Mass.). Determined ROI were drawn using the best quality image phantom from reconstructed CT (FIG. 14, Table 3) for the thymus, muscle, carotids and aortic arch. […]

Molecules are shown by their SMILES. “Also recorded” adds a separate entry of the source.

T1 sequence (P24063 24-1162): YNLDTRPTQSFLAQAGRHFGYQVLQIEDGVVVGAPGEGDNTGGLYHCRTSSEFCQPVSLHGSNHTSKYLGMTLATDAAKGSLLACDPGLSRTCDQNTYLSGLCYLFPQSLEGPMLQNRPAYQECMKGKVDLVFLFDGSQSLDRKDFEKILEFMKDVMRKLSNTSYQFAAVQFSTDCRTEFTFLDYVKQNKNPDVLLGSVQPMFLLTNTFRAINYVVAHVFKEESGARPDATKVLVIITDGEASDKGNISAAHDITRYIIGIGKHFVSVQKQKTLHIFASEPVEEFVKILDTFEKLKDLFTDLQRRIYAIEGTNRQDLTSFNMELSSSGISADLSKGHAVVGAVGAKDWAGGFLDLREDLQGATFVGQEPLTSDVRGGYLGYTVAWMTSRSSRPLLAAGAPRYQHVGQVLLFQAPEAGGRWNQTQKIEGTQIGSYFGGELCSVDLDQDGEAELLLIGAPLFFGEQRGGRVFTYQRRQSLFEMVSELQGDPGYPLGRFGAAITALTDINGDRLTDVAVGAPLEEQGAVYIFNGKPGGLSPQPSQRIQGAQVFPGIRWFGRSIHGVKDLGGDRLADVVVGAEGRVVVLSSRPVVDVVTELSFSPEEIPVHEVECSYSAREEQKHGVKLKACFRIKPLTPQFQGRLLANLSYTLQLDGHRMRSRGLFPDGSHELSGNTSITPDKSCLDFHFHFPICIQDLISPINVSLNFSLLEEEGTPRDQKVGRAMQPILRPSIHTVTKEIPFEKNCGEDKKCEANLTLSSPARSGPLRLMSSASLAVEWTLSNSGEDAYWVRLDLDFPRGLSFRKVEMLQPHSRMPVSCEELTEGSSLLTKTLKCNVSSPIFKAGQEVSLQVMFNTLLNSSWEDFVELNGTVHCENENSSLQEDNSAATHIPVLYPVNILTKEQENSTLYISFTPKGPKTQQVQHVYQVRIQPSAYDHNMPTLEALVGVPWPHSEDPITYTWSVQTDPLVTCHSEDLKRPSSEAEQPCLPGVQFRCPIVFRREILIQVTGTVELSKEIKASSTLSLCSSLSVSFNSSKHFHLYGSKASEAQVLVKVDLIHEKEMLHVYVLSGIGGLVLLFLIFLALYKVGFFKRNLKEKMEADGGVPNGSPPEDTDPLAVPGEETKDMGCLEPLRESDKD
T1 sequence (P11835 24-771 partner): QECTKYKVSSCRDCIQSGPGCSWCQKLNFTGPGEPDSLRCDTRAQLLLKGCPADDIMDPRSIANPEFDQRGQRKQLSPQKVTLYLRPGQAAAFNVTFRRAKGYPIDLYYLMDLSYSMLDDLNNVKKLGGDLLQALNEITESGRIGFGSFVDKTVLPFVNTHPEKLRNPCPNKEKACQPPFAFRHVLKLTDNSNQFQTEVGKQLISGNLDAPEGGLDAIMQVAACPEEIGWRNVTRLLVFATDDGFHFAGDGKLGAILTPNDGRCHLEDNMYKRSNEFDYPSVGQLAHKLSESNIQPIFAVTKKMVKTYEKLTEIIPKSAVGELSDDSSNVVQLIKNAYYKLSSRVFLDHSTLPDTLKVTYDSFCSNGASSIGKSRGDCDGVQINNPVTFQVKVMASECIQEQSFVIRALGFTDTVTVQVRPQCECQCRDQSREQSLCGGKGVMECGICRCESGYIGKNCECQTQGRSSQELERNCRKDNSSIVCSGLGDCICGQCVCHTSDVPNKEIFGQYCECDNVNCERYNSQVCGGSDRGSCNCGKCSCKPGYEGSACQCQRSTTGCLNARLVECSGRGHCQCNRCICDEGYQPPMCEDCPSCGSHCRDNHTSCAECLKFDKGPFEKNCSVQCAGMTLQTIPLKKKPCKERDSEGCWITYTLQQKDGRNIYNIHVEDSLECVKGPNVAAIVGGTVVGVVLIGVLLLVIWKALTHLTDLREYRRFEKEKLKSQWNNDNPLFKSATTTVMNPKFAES

Take `C[C@]1(Cc2ccc(Br)cc2)C(=O)N(c2cc(Cl)cc(Cl)c2)C(=O)N1CCCCNC(=O)CN1CCN2CCN3CCN(CC1)CC(=O)[O][111In]([O]C(=O)C2)[O]C(=O)C3` [[^111In] In-DANBIRT]: the “uptake in heart, aortic arch and descending aorta ROI (SPECT/CT)” value is “longitudinal increased uptake; also recorded: Increased longitudinal uptake” on LFA-1 [1] and “longitudinal increase in uptake” at LFA-1 [1] (listed as 111In-DANBIRT). Besides, the “uptake in carotids and thymus, concentration per volume normalized to muscle, HFD vs normal diet” value on LFA-1 [2] (24 hr post injection after 8 weeks of diet) is listed as “increase; also recorded: Increased uptake”. Moreover, the “uptake in the thymus” value at LFA-1 [2] (Example 1, autoradiography and SPECT/CT analysis) is given as “Increased uptake”.
